Measured values published in patent publication US10961309B2, “Reducing systemic regulatory T cell levels or activity for treatment of disease and injury of the CNS” (Yeda Research and Development Co. Ltd, priority 2014, dated 2021).
“Also recorded” adds a separate entry of the source.

Tests used:
Type in all cases: in vivo, mouse
Aβ plaques = assay: Aβ plaque quantitation (immunohistochemistry)
Procedure: Tissue processing and immunohistochemistry were performed on paraffin embedded sectioned mouse (6 μm thick) and human (10 μm thick) brains. For human ICAM-1 staining, primary mouse anti-ICAM (1:20 Abcam; ab2213) antibody was used. Slides were incubated for 10 min with 3% H2O2, and a secondary biotin-conjugated anti-mouse antibody was used, followed by biotin/avidin amplification with Vectastain ABC kit (Vector Laboratories). Subsequently, 3,3′-diaminobenzidine (DAB substrate) (Zytomed kit) was applied; slides were dehydrated and mounted with xylene-based mounting solution. For tissue stainings, mice were transcardially perfused with PBS prior to tissue excision and fixation. CP tissues were isolated under a dissecting microscope (Stemi DV4; Zeiss) from the lateral, third, and fourth ventricles of the brain. For whole mount CP staining, tissues were fixated with 2.5% paraformaldehyde (PFA) for 1 hour at 4° C., and subsequently transferred to PBS containing 0.05% sodium azide. Prior to staining, the dissected tissues were washed with PBS and blocked (20% horse serum, 0.3% Triton X-100, and PBS) for 1 h at room temperature. Whole mount staining with primary antibodies (in PBS containing 2% horse serum and 0.3% Triton X-100), or secondary antibodies, was performed for 1 h at room temperature. Each step was followed by three washes in PBS. The tissues were applied to slides, mounted with Immu-mount (9990402, from Thermo Scientific), and sealed with cover-slips. For staining of sectioned brains, two different tissue preparation protocols (paraffin embedded or microtomed free-floating sections) were applied, as previously described (Baruch et al, 2013; Kunis et al, 2013). The following primary antibodies were used: mouse anti-Aβ (1:300, Covance, #SIG-39320); rabbit anti-GFP (1:100, MBL, #598); rat anti-CD68 (1:300, eBioscience, #14-0681); rat anti-ICAM-1 (1:200, Abcam, #AB2213); goat anti-GFP (1:100, Abcam, #ab6658); rabbit anti-IBA-1 (1:300, Wako, #019-19741); goat anti-IL-10 (1:20, R&D systems, #AF519); rat anti-Foxp3 (1:20, eBioscience, #13-5773-80); rabbit anti-CD3 (1:500, Dako, #IS503); mouse anti-ZO-1, mouse anti-E-Cahedrin, and rabbit anti-Claudin-1 (all 1:100, Invitrogen, #33-9100, #33-4000, #51-9000); rabbit anti-GFAP (1:200, Dako, #Z0334). Secondary antibodies included: Cy2/Cy3/Cy5-conjugated donkey anti-mouse/goat/rabbit/rat antibodies (1:200; all from Jackson Immunoresearch). The slides were exposed to Hoechst nuclear staining (1:4000; Invitrogen Probes) for 1 min. Two negative controls were routinely used in immunostaining procedures, staining with isotype control antibody followed by secondary antibody, or staining with secondary antibody alone. For Foxp3 intracellular staining, antigen retrieval from paraffin-embedded slides was performed using Retreivagen Kit (#550524, #550527; BD Pharmingen™). Microscopic analysis, was performed using a fluorescence microscope (E800; Nikon) or laser-scanning confocal microscope (Carl Zeiss, Inc.). The fluorescence microscope was equipped with a digital camera (DXM 1200F; Nikon), and with either a 20× NA 0.50 or 40× NA 0.75 objective lens (Plan Fluor; Nikon). The confocal microscope was equipped with LSM 510 laser scanning capacity (three lasers: Ar 488, HeNe 543, and HeNe 633). Recordings were made on postfixed tissues using acquisition software (NIS-Elements, F3 [Nikon] or LSM [Carl Zeiss, Inc.]). For quantification of staining intensity, total cell and background staining was measured using ImageJ software (NIH), and intensity of specific staining was calculated, as previously described (Burgess et al, 2010). Images were cropped, merged, and optimized using Photoshop CS6 13.0 (Adobe), and were arranged using Illustrator CS5 15.1 (Adobe).
From each brain, 6 μm coronal slices were collected, and eight sections per mouse, from four different pre-determined depths throughout the region of interest (dentate gyrus or cerebral cortex) were immunostained. […]

5XFAD AD-Tg mice = assay: Radial arm water maze (RAWM)
Procedure: The radial-arm water maze (RAWM) was used to test spatial learning and memory, as was previously described in detail (Alamed et al, 2006). Briefly, six stainless steel inserts were placed in the tank, forming six swim arms radiating from an open central area. The escape platform was located at the end of one arm (the goal arm), 1.5 cm below the water surface, in a pool 1.1 m in diameter. The water temperature was kept between 21-22° C. Water was made opaque with milk powder. Within the testing room, only distal visual shape and object cues were available to the mice to aid in location of the submerged platform. The goal arm location remained constant for a given mouse. On day 1, mice were trained for 15 trials (spaced over 3 h), with trials alternating between a visible and hidden platform, and the last 4 trails with hidden platform only. On day 2, mice were trained for 15 trials with the hidden platform. Entry into an incorrect arm, or failure to select an arm within 15 sec, was scored as an error. Spatial learning and memory were measured by counting the number of arm entry errors or the escape latency of the mice on each trial. Training data were analyzed as the mean errors or escape latency, for training blocks of three consecutive trials.
At 10 months of age, 5XFAD Alzheimer's' disease (AD) transgenic (Tg) mice were injected i.p. with either 250 ug of anti-PD1 (RMP1-14; #BE0146; Bioxcell Lifesciences Pvt. LTD.) or control IgG (IgG2a; #BE0089; Bioxcell Lifesciences Pvt. LTD.) antibodies, on day 1 and day 4 of the experiment, and were examined 3 weeks after (schematically depicted in FIG. 11A) for their cognitive performance by radial arm water maze (RAWM) spatial learning and memory task, as was previously described in detail (Alamed et al, 2006). Briefly, on day 1 of the RAWM task, mice were trained for 15 trials (spaced over 3 h), with trials alternating between a visible and hidden platform, and the last 4 trails with hidden platform only. On day 2, mice were trained for 15 trials with the hidden platform. Entry into an incorrect arm, or failure to select an arm within 15 sec, was scored as an error. Spatial learning and memory were measured by counting the number of arm entry errors or the escape latency of the mice on each trial. Age matched untreated WT and AD-Tg mice were used as controls.

[1] = test system: hippocampal gliosis (GFAP); assay: GFAP immunostaining (astrogliosis)
Procedure: Tissue processing and immunohistochemistry were performed on paraffin embedded sectioned mouse (6 μm thick) and human (10 μm thick) brains. For human ICAM-1 staining, primary mouse anti-ICAM (1:20 Abcam; ab2213) antibody was used. Slides were incubated for 10 min with 3% H2O2, and a secondary biotin-conjugated anti-mouse antibody was used, followed by biotin/avidin amplification with Vectastain ABC kit (Vector Laboratories). Subsequently, 3,3′-diaminobenzidine (DAB substrate) (Zytomed kit) was applied; slides were dehydrated and mounted with xylene-based mounting solution. For tissue stainings, mice were transcardially perfused with PBS prior to tissue excision and fixation. CP tissues were isolated under a dissecting microscope (Stemi DV4; Zeiss) from the lateral, third, and fourth ventricles of the brain. […] Microscopic analysis, was performed using a fluorescence microscope (E800; Nikon) or laser-scanning confocal microscope (Carl Zeiss, Inc.). The fluorescence microscope was equipped with a digital camera (DXM 1200F; Nikon), and with either a 20× NA 0.50 or 40× NA 0.75 objective lens (Plan Fluor; Nikon). […] For quantification of staining intensity, total cell and background staining was measured using ImageJ software (NIH), and intensity of specific staining was calculated, as previously described (Burgess et al, 2010). […]

[2] = 3 weeks after last ATRA injection, AD-Tg mice

## CC1=C(/C=C/C(C)=C/C=C/C(C)=C/C(=O)O)C(C)(C)CCC1 [ATRA, All-trans retinoic acid]
Aβ plaques; [2]
  cerebral Aβ plaque burden: 2-3 fold increase
5XFAD AD-Tg mice; ATRA-treated vs vehicle-treated AD-Tg mice, 3 weeks after treatment
  cognitive performance (spatial memory) in the RAWM: worsening of the spatial memory deficits
[1]; [2]
  gliosis: 2-3 fold increase

## Glatiramer acetate [GA]
Aβ plaques; daily-GA 100 μg s.c. for 1 month, 5XFAD AD-Tg mice
  Aβ plaque load: did not show any beneficial effect, or showed a moderate adverse effect on plaque load
Aβ plaques; weekly-GA, 5XFAD AD-Tg mice
  Aβ plaque load (percentage of total area of hippocampal dentate gyrus): robust effect; also recorded: reduction in Aβ plaque load
  mean Aβ plaque numbers: reduction
5XFAD AD-Tg mice; daily-GA 100 μg s.c. for 1 month, 7-month old 5XFAD AD-Tg mice
  cognitive performance (spatial memory) by the RAWM task: either no beneficial effect on spatial memory, or a tendency towards a worsening effect
5XFAD AD-Tg mice; weekly-GA, 5XFAD AD-Tg mice
  duration of improved cognitive performance after the treatment: up to 2 months
5XFAD AD-Tg mice; weekly-GA, 7-month old 5XFAD AD-Tg mice
  cognitive performance by the RAWM task: beneficial effect

## Diphtheria toxin [DTx]
[1]; AD-Tg/DTR+ mice, 3 weeks after last DTx injection
  hippocampal gliosis (GFAP immunostaining): reduced astrogliosis; also recorded: reduction in hippocampal gliosis
